This test concerns L1210 leukemia ip in BDF1 mice, survival T/C. The test is described as follows: NCI In Vivo Anticancer Drug Screen. Data for tumor model L1210 Leukemia (intraperitoneal) in B6D2F1 (BDF1) mice. The conditions noted are these: endpoint: mean survival time, higher = longer survival. The gist of the method: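 Transplanted-tumor mice were given test agent; controls received vehicle only. Survival readings from the two groups were divided (treated over control).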

Where [1] appears, read: dose: 100.0 mg/kg/injection, schedule: Q04DX003 (ip), vehicle: other.
The mark [2] stands for this setting: dose: 200.0 mg/kg/injection, schedule: Q04DX003 (ip), vehicle: other.
Setting [3] is: dose: 400.0 mg/kg/injection, schedule: Q04DX003 (ip), vehicle: other.
The mark [4] stands for this setting: dose: 50.0 mg/kg/injection, schedule: Q01DX001 (ip), vehicle: saline.
Where [5] appears, read: dose: 100.0 mg/kg/injection, schedule: Q01DX001 (ip), vehicle: saline.
[6] abbreviates: dose: 200.0 mg/kg/injection, schedule: Q01DX001 (ip), vehicle: saline.
The mark [7] stands for this setting: dose: 100.0 mg/kg/injection, schedule: Q04DX003 (ip), vehicle: Klucel (hydroxypropylcellulose) (HPC).
Setting [8] is: dose: 200.0 mg/kg/injection, schedule: Q04DX003 (ip), vehicle: Klucel (hydroxypropylcellulose) (HPC).
[9] abbreviates: dose: 100.0 mg/kg/injection, schedule: Q01DX009 (ip), vehicle: saline with Tween-80.
Where [10] appears, read: dose: 200.0 mg/kg/injection, schedule: Q01DX009 (ip), vehicle: saline with Tween-80.
Setting [11] is: dose: 400.0 mg/kg/injection, schedule: Q01DX009 (ip), vehicle: saline with Tween-80.

Molecules are shown by their SMILES. Values joined by “and” are separate entries in the source; they are usually repeats but may differ in a detail not shown here. Equal entries are not always repeated. Toxic doses and inconclusive results are not listed.

Regarding `CN=C(NC)c1ccc(NC(=O)c2ccc(C(=O)Nc3ccc(C(=NC)NC)cc3)cc2)cc1`, the T/C reads like this: (dose: 0.23 mg/kg/injection, schedule: Q01DX Z (ip), vehicle: methylcellulose (MC)) 96 % of control and 124 % of control; (dose: 0.9 mg/kg/injection, schedule: Q01DX Z (ip), vehicle: methylcellulose (MC)) 110 % of control and 177 % of control and 205 % of control; (dose: 1.87 mg/kg/injection, schedule: Q01DX Z (ip), vehicle: methylcellulose (MC)) 150 % of control; (dose: 1.9 mg/kg/injection, schedule: Q01DX Z (ip), vehicle: methylcellulose (MC)) 124 % of control; (dose: 3.75 mg/kg/injection, schedule: Q01DX Z (ip), vehicle: methylcellulose (MC)) 161 % of control; (dose: 7.5 mg/kg/injection, schedule: Q01DX Z (ip), vehicle: methylcellulose (MC)) 160 % of control. Also, the T/C by setting is: (dose: 15.0 mg/kg/injection, schedule: Q01DX Z (ip), vehicle: methylcellulose (MC)) 124 % of control; (dose: 15.0 mg/kg/injection, schedule: Q01DX Z (oral), vehicle: carboxymethylcellulose (CMC)) 111 % of control; (dose: 30.0 mg/kg/injection, schedule: Q01DX Z (ip), vehicle: methylcellulose (MC)) 108 % of control; (dose: 30.0 mg/kg/injection, schedule: Q01DX Z (oral), vehicle: carboxymethylcellulose (CMC)) 102 % of control; (dose: 60.0 mg/kg/injection, schedule: Q01DX Z (oral), vehicle: carboxymethylcellulose (CMC)) 107 % of control; (dose: 120.0 mg/kg/injection, schedule: Q01DX Z (oral), vehicle: carboxymethylcellulose (CMC)) 96 % of control. For the same compound, the T/C (dose: 240.0 mg/kg/injection, schedule: Q01DX Z (oral), vehicle: carboxymethylcellulose (CMC)) is 115 % of control and the T/C (dose: 480.0 mg/kg/injection, schedule: Q01DX Z (oral), vehicle: carboxymethylcellulose (CMC)) is 113 % of control.

As for `COc1ccc(Cc2ccccc2)c(O)c1`, the T/C was 93 % of control (dose: 100.0 mg/kg/injection, schedule: Q01DX009 (ip), vehicle: other); 99 % of control under setting [1]; 111 % of control (dose: 200.0 mg/kg/injection, schedule: Q01DX009 (ip), vehicle: other); 97 % of control under setting [2]; 91 % of control under setting [3].

Consider `O=[N+]([O-])c1ccc(F)cc1F`, for which the T/C was 103 % of control (dose: 22.0 mg/kg/injection, schedule: Q01DX009 (ip), vehicle: Klucel (hydroxypropylcellulose) (HPC)); 105 % of control (dose: 43.7 mg/kg/injection, schedule: Q01DX009 (ip), vehicle: Klucel (hydroxypropylcellulose) (HPC)); 97 % of control and 114 % of control (dose: 87.5 mg/kg/injection, schedule: Q01DX009 (ip), vehicle: Klucel (hydroxypropylcellulose) (HPC)).

`COc1ccc(NCCC(O)CN2CCOCC2)cc1` (configuration not stated): the T/C reads like this: under setting [4], 100 % of control; under setting [5], 94 % of control; under setting [6], 119 % of control.

As for `COC1OC2COC(c3ccccc3)OC2C(O)C1NC(=O)c1ccccc1` (configuration not stated), the T/C by setting is: under setting [7], 110 % of control; under setting [8], 94 % of control; (dose: 400.0 mg/kg/injection, schedule: Q04DX003 (ip), vehicle: Klucel (hydroxypropylcellulose) (HPC)) 111 % of control.

Turning to `COc1cc([N+](=O)[O-])ccc1NC(=O)N(C)C1CCCCC1`, the T/C runs as follows: (dose: 100.0 mg/kg/injection, schedule: Q01DX001 (ip), vehicle: saline with Tween-80) 103 % of control; under setting [9], 98 % of control and 91 % of control; (dose: 100.0 mg/kg/injection, schedule: Q04DX002 (ip), vehicle: saline with Tween-80) 99 % of control and 105 % of control; (dose: 200.0 mg/kg/injection, schedule: Q01DX001 (ip), vehicle: saline with Tween-80) 100 % of control; under setting [10], 92 % of control and 96 % of control; (dose: 200.0 mg/kg/injection, schedule: Q04DX002 (ip), vehicle: saline with Tween-80) 94 % of control and 86 % of control. Further, the T/C is, setting by setting: (dose: 400.0 mg/kg/injection, schedule: Q01DX001 (ip), vehicle: saline with Tween-80) 94 % of control; under setting [11], 94 % of control and 98 % of control; (dose: 400.0 mg/kg/injection, schedule: Q04DX002 (ip), vehicle: saline with Tween-80) 94 % of control and 89 % of control.

`CC(CCC(=O)O)(c1ccc(O)cc1)c1ccc(O)cc1`: the T/C is 99 % of control under setting [1], 105 % of control under setting [2] and 97 % of control under setting [3].

In the case of `CN1CCCCCC(=N\O)/C(=N/O)CCCCC1`, the T/C runs as follows: under setting [4], 101 % of control; under setting [5], 103 % of control; under setting [6], 100 % of control.

As to `CC(=O)Nc1ccn(CC(=O)c2ccco2)c(=O)n1`, the T/C was 102 % of control under setting [9]; 98 % of control (dose: 100.0 mg/kg/injection, schedule: Q04DX003 (ip), vehicle: saline with Tween-80); 102 % of control under setting [10]; 90 % of control (dose: 200.0 mg/kg/injection, schedule: Q04DX003 (ip), vehicle: saline with Tween-80); 104 % of control under setting [11]; 93 % of control (dose: 400.0 mg/kg/injection, schedule: Q04DX003 (ip), vehicle: saline with Tween-80).

As for `CC(NCCN1CC1)C1CC1` (configuration not stated), under “dose: 20.0 mg/kg/injection, schedule: Q01DX009 (ip), vehicle: saline”, the T/C was 120 % of control.

In the case of `OC1(c2ccccc2)CCC1`, the T/C reads like this: (dose: 62.0 mg/kg/injection, schedule: Q01DX009 (ip), vehicle: saline with Tween-80) 91 % of control; (dose: 125.0 mg/kg/injection, schedule: Q01DX009 (ip), vehicle: saline with Tween-80) 99 % of control; (dose: 250.0 mg/kg/injection, schedule: Q01DX009 (ip), vehicle: saline with Tween-80) 97 % of control.

In the case of `CCc1ccc(N=Nc2ccc(N(C)C)cc2)cc1`, the T/C reads like this: (dose: 50.0 mg/kg/injection, schedule: Q04DX003 (ip), vehicle: Klucel (hydroxypropylcellulose) (HPC)) 93 % of control; (dose: 100.0 mg/kg/injection, schedule: Q01DX001 (ip), vehicle: carboxymethylcellulose (CMC)) 110 % of control; under setting [7], 96 % of control; (dose: 200.0 mg/kg/injection, schedule: Q01DX001 (ip), vehicle: carboxymethylcellulose (CMC)) 89 % of control; under setting [8], 96 % of control; (dose: 400.0 mg/kg/injection, schedule: Q01DX001 (ip), vehicle: carboxymethylcellulose (CMC)) 101 % of control.

Turning to `C[n+]1ccnc2ccccc21`, the T/C is, setting by setting: (dose: 10.0 mg/kg/injection, schedule: Q01DX009 (ip), vehicle: saline with Tween-80) 105 % of control; (dose: 20.0 mg/kg/injection, schedule: Q01DX009 (ip), vehicle: saline with Tween-80) 105 % of control; (dose: 40.0 mg/kg/injection, schedule: Q01DX009 (ip), vehicle: saline with Tween-80) 104 % of control.

As for `COc1ccc2c(c1)c1c(C)c3cnccc3c(C)c1n2CC1CO1` (configuration not stated), the T/C reads like this: (dose: 4.7 mg/kg/injection, schedule: Q01DX009 (ip), vehicle: saline with Tween-80) 100 % of control; (dose: 9.4 mg/kg/injection, schedule: Q01DX009 (ip), vehicle: saline with Tween-80) 102 % of control; (dose: 18.75 mg/kg/injection, schedule: Q04DX003 (ip), vehicle: saline with Tween-80) 116 % of control; (dose: 37.5 mg/kg/injection, schedule: Q04DX003 (ip), vehicle: saline) 120 % of control; (dose: 75.0 mg/kg/injection, schedule: Q04DX003 (ip), vehicle: saline) 91 % of control.

Regarding `NC1CCCCCCCC1`, the T/C was 95 % of control (dose: 75.0 mg/kg/injection, schedule: Q01DX001 (ip), vehicle: acetone) and 98 % of control (dose: 150.0 mg/kg/injection, schedule: Q01DX001 (ip), vehicle: acetone).

Turning to `CCCCCn1cnc2c(=O)[nH]c(N)nc21`, the T/C (dose: 50.0 mg/kg/injection, schedule: Q01DX001 (ip), vehicle: Klucel (hydroxypropylcellulose) (HPC)) is 105 % of control; the T/C (dose: 100.0 mg/kg/injection, schedule: Q01DX001 (ip), vehicle: Klucel (hydroxypropylcellulose) (HPC)) was 103 % of control; the T/C (dose: 200.0 mg/kg/injection, schedule: Q01DX001 (ip), vehicle: Klucel (hydroxypropylcellulose) (HPC)) is 106 % of control.

The values are drawn from PubChem BioAssay AID248 (DTP/NCI, 2004).
